These results are taken from patent US20210378240A1, “OXETANYLPHENOXYQUINOLINES AND ANALOGUES” (Bayer Aktiengesellschaft, priority 2018, published 2021).

Method: In table 1, the logP values were determined in accordance with EEC Directive 79/831 Annex V.A8 by HPLC (High Performance Liquid Chromatography) on a reversed-phase column (C 18), using the method to described below:
temperature: 40° C.; mobile phases: 0.1% aqueous formic acid and acetonitrile; linear gradient from 10% acetonitrile to 95% acetonitrile;
Calibration was carried out using unbranched alkan-2-ones (comprising 3 to 16 carbon atoms) with known logP values (determination of the logP values by the retention times using linear interpolation between two successive alkanones). lambda-max-values were determined using UV-spectra from 200 nm to 400 nm and the peak values of the chromatographic signals.

Turning to `Cc1nc2c(F)c(F)ccc2cc1Cc1ccccc1Br` [3-(2-bromobenzyl)-7,8-difluoro-2-methylquinoline], the chromatographic logP was found to be 4.26. As for `O=[N+]([O-])c1cccc(F)c1OC1COC1` [3-(2-fluoro-6-nitrophenoxy)oxetane], the figure is 2; as for `Nc1cccc(F)c1OC1COC1` [3-fluoro-2-(oxetan-3-yloxy)-aniline, 3-fluoro-2-(oxetan-3-yloxy)aniline], 1.32; as for `Cc1nc2c(F)c(F)ccc2cc1Oc1ccccc1C1OCC1(C)C` (centres unmarked) [I.01, 3-[2-(3,3-dimethyloxetan-2-yl)phenoxy]-7,8-difluoro-2-methyl-quinoline], 4.44.

Take `Cc1nc2c(F)c(F)ccc2cc1Oc1ccccc1C1COC1` [I.02, 7,8-difluoro-2-methyl-3-[2-(oxetan-3-yl)phenoxy]quinoline]: the chromatographic logP was 3.33. The same measure for `Cc1nc2c(F)c(F)ccc2cc1Oc1ccccc1N1CC2(COC2)C1` [I.03, 7,8-difluoro-2-methyl-3-[2-(2-oxa-6-azaspiro[3.3]heptan-6-yl)phenoxy]quinoline]: 3.48; for `Cc1nc2c(F)c(F)ccc2cc1Cc1ccccc1C1(C)COC1` [I.04, 7,8-difluoro-2-methyl-3-[2-(3-methyloxetan-3-yl)benzyl]quinoline]: 3.47. The same measure for `Cc1nc2c(F)c(F)ccc2cc1Nc1cccc(F)c1CN1CC(F)(F)C1` [I.10, N-{2-[(3,3-difluoroazetidin-1-yl)methyl]-3-fluorophenyl}-7,8-difluoro-2-methylquinolin-3-amine]: 4.33; for `Cc1nc2c(F)c(F)ccc2cc1Cc1ccccc1C#CC1COC1` [I.14, 7,8-difluoro-2-methyl-3-[2-(oxetan-3-ylethynyl)benzyl]quinoline]: 3.66; for `Cc1nc2c(F)c(F)ccc2cc1Nc1cccc(F)c1OC1COC1` [I.15, 7,8-difluoro-N-[3-fluoro-2-(oxetan-3-yloxy)phenyl]-2-methylquinolin-3-amine]: 3.28. `Cc1nc2c(F)c(F)ccc2cc1Oc1ccccc1C(O)C(C)(C)CO` (centres unmarked) [IIa.01, 1-{2-[(7,8-difluoro-2-methylquinolin-3-yl)oxy]phenyl}-2,2-dimethylpropane-1,3-diol] returned a chromatographic logP of 2.96.

In turn, `Cc1nc2c(F)c(F)ccc2cc1Oc1cccc(I)c1C(O)C(C)(C)CO` (centres unmarked) [IIa.02, 1-{2-[(7,8-difluoro-2-methylquinolin-3-yl)oxy]-6-iodophenyl}-2,2-dimethylpropane-1,3-diol] gave a chromatographic logP of 3.57. As for `O=Cc1ccccc1Nc1cnc2c(F)cccc2c1` [IV.01, 2-[(8-fluoroquinolin-3-yl)amino]benzaldehyde], the figure is 2.88. As for `O=Cc1c(F)cccc1Oc1cnc2ccccc2c1` [IV.02, 2-fluoro-6-(quinolin-3-yloxy)benzaldehyde], the chromatographic logP is 2.43. As for `Cc1nc2ccccc2cc1Oc1cccc(F)c1C=O` [IV.03, 2-fluoro-6-[(2-methylquinolin-3-yl)oxy]benzaldehyde], the figure is 2.32; as for `Cc1nc2c(F)c(F)ccc2cc1Oc1ccccc1C=O` [IV.04, 2-[(7,8-difluoro-2-methylquinolin-3-yl)oxy]benzaldehyde], 3.21. As for `Cc1nc2c(F)c(F)ccc2cc1Oc1cccc(F)c1C=O` [IV.05, 2-[(7,8-difluoro-2-methylquinolin-3-yl)oxy]-6-fluorobenzaldehyde], the figure is 3.1; as for `Fc1cccc(Br)c1CN1CC(F)(F)C1` [IX_C, 1-(2-bromo-6-fluorobenzyl)-3,3-difluoroazetidine], 1.89. As for `CC1(c2ccccc2CBr)COC1` [XIII.01, 3-[2-(bromomethyl)phenyl]-3-methyloxetane], the figure is 2.73; as for `CC1(c2ccccc2CO)COC1` [XIV.01, [2-(3-methyloxetan-3-yl)phenyl]methanol], 1.3.
